Results on two compounds are retold here after US9072734B2, “Quaternary ammonium salt compounds” (Teijin Pharma Limited, priority 2009, dated 2015).

SMILES strings stand for the structures. Where a name gives a salt, the structure may show the parent alone. Some results are limits rather than exact numbers.

The test relates to acetylcholine-induced bronchoconstriction in guinea pigs. Description: Effects on acetylcholine-induced bronchoconstriction in guinea pigs. Particulars: Cavia porcellus; 24 hours after 25 μg/kg of the compounds were administered; read-out: percentage of bronchoconstriction suppression with respect to the acetylcholine stimulation. The format is in vivo, guinea pig. The protocol: These in vivo assays are used to evaluate the bronchoprotective effects based on the M3 muscarinic receptor antagonist activity and the β2 adrenergic receptor agonist activity of test compounds. Hartley male guinea pigs (Nippon SLC, Inc.) weighing about 400-500 g were used. The animals were anesthetized by inhalation of Fluothane (Takeda Pharmaceutical Company Limited) in a plastic box. The test compounds were dissolved in physiological saline containing DMSO, and administered through the nasal cavity into the trachea at a dose of 0.04-25 μg/kg and at a volume of 0.4 mL/kg. For control animals, solvent without a test compound was administered. In general, animals awake several minutes after completion of the administration. The animals were anesthetized with an intraperitoneal administration of 33% urethane/0.8% α-chloralose at a dose of 3 mL/kg. In order to intravenously administer acetylcholine or histamine, a catheter was inserted into the carotid artery. In order to measure artificial respiration and airway ventilation pressure, a cannula was inserted into the trachea. Artificial respiration was applied to the animals at a volume of 10 mL/kg and at a frequency of 60/minute, using a ventilator (Harvard Apparatus). The airway ventilation pressure was measured by the Konzett-Roessler method using a general respiratory function analysis system (M.I.P.S). Prior to administration of acetylcholine or histamine, the airway ventilation pressure was measured and baseline values were recorded. Then, physiological saline was administered through the carotid artery catheter at a volume of 0.4 mL/kg, and the airway ventilation pressure was measured. Bronchoconstrictor response was induced by administering acetylcholine (40 μg/kg, 0.4 mL/kg) or histamine (15 μg/kg, 0.4 mL/kg) through the carotid artery catheter one hour after the administration of the test compounds, and the airway ventilation pressure at the maximum contractile response was recorded. In addition, in order to evaluate duration of action of the test compounds, the above-mentioned dose of acetylcholine or histamine was administered, 1 hour, 6 hours, 12 hours, 18 hours, and 24 hours after the administration of test compounds, and the airway ventilation pressure was measured in the same way. The percentage of suppression by the test compounds with respect to the airway contractile response was calculated according to the following formula. (%) Percentage of the airway constriction suppression=(Airway ventilation pressure of test compound-dosed and acetylcholine- or histamine-dosed animals−Baseline value)/(Airway ventilation pressure of acetylcholine- or histamine-dosed animals−Baseline value)×100
The 50% inhibitory doses (ID50 values) of the test compounds were analyzed by a sigmoidal logistic model using XLfit4 (IDBS, Ltd.) for the percentage of the bronchoconstriction suppression at different doses of the test compounds.

With `COc1cc(NC(=O)CCCCc2ccc(-c3ccccc3)c(NC(=O)OC3CC[N+](C)(C)CC3)c2)c(Cl)cc1CNC[C@H](O)c1ccc(O)c2[nH]c(=O)ccc12` [Example 51, 4-({[5-(4-{[2-chloro-4-({[(2R)-2-hydroxy-2-(8-hydroxy-2-oxo-1,2-dihydroquinolin-5-yl)ethyl]amino}methyl)-5-methoxyphenyl]carbamoyl}butyl)-2-phenylphenyl]carbamoyl}oxy)-1,1-dimethylpiperidin-1-ium trifluoroacetate], the inhibition in vivo at 0.025 mg/kg was at least 50%.
As for `C[N+]1(C)CCC(OC(=O)Nc2cc(CCC(=O)Nc3ccc(CNC[C@H](O)c4ccc(O)c5[nH]c(=O)ccc45)cc3)ccc2-c2ccccc2)CC1` [Example 1, 4-({[5-(2-{[4-({[(2R)-2-hydroxy-2-(8-hydroxy-2-oxo-1,2-dihydroquinolin-5-yl)ethyl]amino}methyl)phenyl]carbamoyl}ethyl)-2-phenylphenyl]carbamoyl}oxy)-1,1-dimethylpiperidin-1-ium trifluoroacetate], the figure is at least 50%.
